{"source": "paper PMC6669322", "about": "“Small Molecule Binding to Alzheimer Risk Factor CD33 Promotes Aβ Phagocytosis” (iScience, 2019)", "tested_on": "differentiated THP-1 cells", "assay": "THP-1 phagocytosis assay (pHrodo E. coli BioParticles), wild-type cells", "type": "cell-based, human", "details": "30 min pre-treatment, in words", "excerpt": "Having shown that P22 binds specifically to the sialic acid-binding site of this domain we now have a chemical tool to answer the question of whether the sialic acid-binding site is the appropriate target for small molecule ligands that might promote Aβ uptake. Siglecs preferentially recognize multivalent presentation of their ligands ([Rillahan et al., 2014], [Büll et al., 2016]), and for this reason we conjugated the biotinylated form of P22 to microparticles labeled with both FITC and streptavidin (P22 microparticles) (see Transparent Methods). More than 60% CD33-transfected BV2 cells were positive for P22 microparticles compared with only 30% cells that were only incubated with control particles (unconjugated to P22) (Figure 4A). […]\nFigure 4 Effect of P22 on Phagocytosis The cells were treated with P22 conjugated to microparticles labeled with both streptavidin and fluorescein isothiocyanate (FITC), or with microparticles without P22 conjugated as control. […] (C) Quantification of phagocytic differentiated human THP-1 cells after incubation with P22 monomer, P22 conjugated microparticles, or microparticles without P22 conjugation. […]\nTHP-1 cells (control and CD33KO) were differentiated in growth media (RPMI 1640, 10% FCS) supplemented with 100 ng/mL PMA for 3 days. […] Differentiated cells were then lifted, counted and 75,000 cells/well were plated in a 96 well plate. […]"}
{"smiles": "Cc1cc(C(=O)NC[C@@H](O)[C@@H](O)[C@@H]2O[C@@](OC[C@H]3O[C@@H](O[C@H]4[C@H](O)[C@@H](O)[C@H](OCCN)O[C@@H]4CO)[C@H](O)[C@@H](O)[C@H]3O)(C(=O)O)C[C@H](O)[C@H]2NC(=O)Cn2cc(C3CCCCC3)nn2)cc(C)c1O", "note": "[P22, β-D-Glucopyranoside, 2-aminoethyl O-[N-[2-(4-cyclohexyl-1H-1,2,3-triazol-1-yl)acetyl]-9-deoxy-9-[(4-hydroxy-3,5-dimethylbenzoyl)amino]-α-neuraminosyl] (2→6)-O-β-D-galactopyranosyl-(1→4)-]", "values": [{"measurement": "effect on phagocytosis of E. coli BioParticles", "result": "no effect"}]}
